Measured values taken from BindingDB's records for PubMed 32916382 (Zhejiang University, 2020).

How the values were obtained:
[1] = Inhibition of TNF-alpha (unknown origin) by ELISA assay
[2] = Inhibition of IL-6 (unknown origin) by ELISA assay

Structure (SMILES)	IC50 [1] [µM]	IC50 [2] [µM]
CC(C)=CCN1Cc2cc(Cl)c(Cl)c3nc(S)n(c23)C[C@@H]1C	1.42	1.28
CCOP(=O)(OCC)SCCSCC	1.16	0.6
COP(=O)(OC)Oc1ccc([N+](=O)[O-])cc1	0.89	0.56
CCSCCSP(=O)(OC)OC	20.6	13.8

More lines, now with the values ahead:

IC50 [1] [µM]	IC50 [2] [µM]	Structure (SMILES)
0.629	2	CC(C)=CCN1Cc2cc(C)cc3[nH]c(=S)n(c23)CC1C (centres undefined)
6.38	1.63	CCCC[C@@H]1OC(=O)C2=CCCC[C@H]21
3.31	0.86	CCOC(=O)C1=C(C)N=c2s/c(=C\c3ccc(N4CCOCC4)cc3)c(=O)n2C1c1ccccc1 (centres undefined)
